The test system of data set [1] is Staphylococcus aureus NCTC 13373 (mecA-positive; methicillin-resistant). The experiment in a line: In vitro antibacterial activity, MIC (UCL School of Pharmacy assay), MRSA. As to conditions: for MIC: Staphylococcus aureus. Type of data set: cell-based. Summed up: (§1)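 Two-fold dilution MIC testing, 32–0.03 μg/mL, isosensitest broth medium. Cultures standardized by absorbance at 600 nm (0.1, ~1 × 10^8 CFU/mL) before 1:100 dilution; vancomycin included for quality control.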

The subject of data set [2] is S. aureus ATCC 25923 (methicillin-susceptible). The experiment in a line: In vitro antibacterial activity, MIC (UCL), MSSA. Type of data set: cell-based, Staphylococcus aureus. As to conditions: Staphylococcus aureus. In a few lines: as §1
The subject of data set [3] is Enterococcus faecalis ATCC 51299 (vanA-positive; vancomycin-resistant). The experiment in a line: In vitro antibacterial activity, MIC (UCL), VRE. Format: cell-based. Summed up:
as §1

Data set [4] in a line: Aqueous solubility. Format: physicochemical. As to conditions: for solubility: thermodynamic from solid.
The nature of data set [5]: Human plasma protein binding (PPB). Type of data set: in vitro ADME. As to conditions: human, plasma.
Data set [6] can be described thus: Rat hepatocyte intrinsic clearance. Format: in vitro ADME. As to conditions: rat hepatocytes, NEU; read-out: Rat Hep CLint (NEU).
The nature of data set [7]: Kinetic solubility estimation using nephelometry (Monash). Format: physicochemical. As to conditions: for solubility kinetic at 30 min: kinetic from dmso stock. In a few lines: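 Compound in DMSO was spiked into pH 6.5 phosphate buffer or 0.01 M HCl (approx pH 2.0), 1% final DMSO. After 30 minutes, nephelometry gave a solubility range.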
A short description of data set [8]: In vitro metabolic stability, human liver microsomes (Monash). Type of data set: in vitro ADME. In a few lines:
(§2)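 Compound at 1 μM with human or rat liver microsomes (0.4 mg/mL protein) at 37 °C, reaction started with NADPH-regenerating system and sampled over 60 min. No-NADPH controls included. CLint derived from substrate depletion, without correction for microsomal or blood binding.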
(Microsomes from liver hold many membrane-bound enzymes, among them those of drug oxidation.)

The nature of data set [9]: In vitro metabolic stability, rat liver microsomes (Monash). Format: in vitro ADME. In a few lines:
as §2

Setting [10] is: human plasma, NEU, read-out: Human PPB (NEU) (converted).
Setting [11] is: 0.01 M HCl, simulated gastric fluid, pH 2.0, read-out: Sol (pH 2.0) (Monash).
Setting [12] is: pH 6.5 phosphate buffer, pH 6.5, aqueous buffer, read-out: Sol (pH 6.5) (Monash).
[13] abbreviates: NADPH, read-out: CLint, in vitro.

Values after ≈ are worked out from the molar mass of the structure shown. Like-named read-outs stand apart in the source and are kept apart here.

With `c1ccc(-c2nc3n(c2-c2ccc4sccc4c2)CCC3)nc1` [OSA_000822], the minimal inhibitory concentration (MIC) was 4 µg/mL (≈ 12.6 µM) in data set [1] (UCL, read-out: MRSA MIC (UCL)); 4 µg/mL (≈ 12.6 µM) in data set [2] (read-out: MSSA MIC (UCL)); 8 µg/mL (≈ 25.2 µM) in [3] (read-out: VRE MIC (UCL)). Further, the “Aqueous Solubility (NEU)” value in data set [4] (NEU) came out at 3 µM. Also, in data set [5] (setting [10]), the fraction unbound is 0.023. Also, the hepatocyte CLint in [6] is above 300 µL/min/1e6 cells. The values for the solubility kinetic at 30 min in data set [7] (setting [11]) and in data set [7] (setting [12]) were 50 to 100 µg/mL (≈ 158 to 315 µM) and 12.5 to 25 µg/mL (≈ 39.4 to 78.8 µM), respectively. The “HLM Clint (Monash)” value in [8] (Monash) amounted to 72 µL/min/mg. Moreover, the “HLM t1/2 (Monash)” value in data set [8] (Monash) is listed as 24 min. Also, in data set [9] (Monash), the “RLM Clint (Monash)” value was 503 µL/min/mg. For the same compound, the “RLM t1/2 (Monash)” value in data set [9] (Monash) amounted to 3 min.

Take `c1ccc(-c2nc3n(c2-c2ccc4occc4c2)CCC3)nc1` [compound 821]: the MIC was found to be 4 µg/mL (≈ 13.3 µM) in data set [1] (16 h, read-out: MRSA MIC); 2 µg/mL (≈ 6.64 µM) in [1] (UCL, read-out: MRSA MIC (UCL)); 2 µg/mL (≈ 6.64 µM) in data set [1] (read-out: MRSA MIC); 2 µg/mL (≈ 6.64 µM) in data set [2] (read-out: MSSA MIC (UCL)); 2 µg/mL (≈ 6.64 µM) in data set [3] (read-out: VRE MIC). For the same compound, in data set [4] (NEU, read-out: Aqueous Solubility (NEU)), the solubility is 117 µM (≈ 35.3 µg/mL). Moreover, in data set [5] (setting [10]), the fraction unbound was 0.028. For the same compound, the hepatocyte CLint in data set [6] worked out at 13.6 µL/min/1e6 cells. Besides, the solubility kinetic at 30 min is above 100 µg/mL in data set [7] (setting [11]) and 25 to 50 µg/mL (≈ 83 to 166 µM) in data set [7] (setting [12]). For the same compound, the microsomal CLint at 1 µM in data set [8] (Monash, read-out: HLM Clint (Monash)) was found to be 51 µL/min/mg; in [9] (Monash, read-out: RLM Clint (Monash)), 72 µL/min/mg. The half-life at 1 µM in data set [8] (Monash, read-out: HLM t1/2 (Monash)) stood at 34 min; in [9] (Monash, read-out: RLM t1/2 (Monash)), 24 min.

In the case of `c1ccc(-c2nc3n(c2-c2ccc4sccc4c2)CCC3)nc1` [compound 822], the “MRSA MIC” value in [1] came out at 4 µg/mL. Also, the “activity against MRSA, in words” value in data set [1] is given as “MRSA-active”. In addition, the minimal inhibitory concentration (MIC) in [1] (16 h, read-out: MRSA MIC) turned out to be 2 µg/mL (≈ 6.3 µM); in data set [1] (read-out: MRSA MIC), 2 µg/mL (≈ 6.3 µM); in [2] (read-out: MSSA MIC), 4 µg/mL (≈ 12.6 µM); in data set [3] (read-out: VRE MIC), 8 µg/mL (≈ 25.2 µM). Further, the solubility in [4] (read-out: Aqueous Solubility) turned out to be 3 µM (≈ 0.952 µg/mL). Further, the fraction unbound in [5] (read-out: Human PPB (converted)) is 0.023. Further, in [7] (0.01 M HCl, approx pH 2.0), the “Sol 2.0” value was 50 to 100 µg/mL. Further, the “Sol 6.5” value in data set [7] (pH 6.5 phosphate buffer) was 12.5 to 25 µg/mL. In addition, the microsomal CLint at 1 µM in data set [8] (setting [13]) was 72 µL/min/mg; in [9] (setting [13]), 503 µL/min/mg. Moreover, the half-life at 1 µM worked out at 24 min in [8] (NADPH, read-out: T1/2) and 3 min in data set [9] (NADPH, read-out: T1/2).

In general, MIC refers to the lowest concentration that inhibits growth of the organism. As a reminder, the solubility is the concentration that dissolves in the medium under given conditions.

Values taken from paper PMC10714399, “Open Source Antibiotics: Simple Diarylimidazoles Are Potent against Methicillin-Resistant Staphylococcus aureus” (ACS Infectious Diseases, 2023).
